Laboratory results reported in US20100292193A1, “RADIOPROTECTIVE DRUGS” (THE REGENTS OF THE UNIVERSITY OF CALIFORNIA, priority 2009, published 2010).

Experiments:
TiL-1 cells = experiment: ROS scavenging: intracellular ROS after irradiation (DCF-DA); type: cell-based; conditions: compound added 3 h before irradiation; DCF-DA 25 μM 1 h before; measured immediately after irradiation
Method: FIGS. 5A and 5B show the effect of CPA on ROS scavenging.
The effect of CPA on ROS scavenging was also evaluated. […] The intracellular ROS was measured immediately after irradiation in TiL-1 cells using 2′,7′-dichlorofluorescein diacetate (DCF-DA, Invitrogen). The compound and DCF-DA probe at 25 μM was added 3 h and 1 h before irradiation, respectively.

TiL1 cells = experiment: Cell viability assay with irradiated TiL1 cells (ATPlite); type: cell-based; conditions: 2Gy, ATPlite 24 hours after irradiation, normalized to vehicle control
Method: FIGS. 3A and 3B show radiation dose-responses of irradiated TiL1 cells treated with cyclopiazonic acid (CPA). Cell viability assay with TiL1 cells was measured using ATPlite reagent 24 h after irradiation with 2Gy. CPA was added to the cells 3 h before IR for protection (FIG. 3A) or 1 h after IR for mitigation (FIG. 3B) activities.
Dose-responses of irradiated cells treated with cyclopiazonic acid (CPA) were determined. A cell viability assay with TiL1 cells was measured using ATPlite reagent 24 hours after irradiation with 2Gy. CPA was added to the cells 3 h before irradiation for protection (FIG. 3A), or 1 hour after irradiation mitigation (FIG. 3B) activities. The percent cell viability plotted was normalized to vehicle control value. As shown in FIGS. 3A and 3B CPA both protects and mitigates TiL1 cell from radiation damage.

mice = experiment: Animal survival against a lethal dose total body irradiation; type: in vivo
Method: (§1) FIGS. 4A and 4B show the effect of CPA on animal survival against a lethal dose total body irradiation (TBI). FIG. 4A: Two oral administrations of CPA at 24 h and 1 h prior to irradiation at 8 Gy. FIG. 4B: CPA at 6 mg/kg or vehicle control was administered twice prior to irradiation as (FIG. 4A) along with un-irradiated control mice for Granulocyte-macrophage colony forming units.
The effect of CPA on animal survival against a lethal dose total body irradiation was determined. […] This effect was most prominent with CPA treatment at 6 mg/kg showing 89% survival while only 17% of controls survived.

bone marrow cells = experiment: Granulocyte-macrophage colony forming units from bone marrow after total body irradiation; type: in vivo, mice; conditions: 6 mg/kg twice prior to irradiation; bone marrow collected 3 d after TBI, counted 8-9 d after plating; p<0.05 IR vs IR+CPA
Method: as §1
CPA at 6 mg/kg or vehicle control was administered twice prior to irradiation as described above along with un-irradiated control mice for Granulocyte-macrophage colony forming units.

With `CC(C)(C)c1cc(O)c(C(C)(C)C)cc1O` [di-tBHQ, 2,5-ditertbutylhydroquinone, reference compound] the “reduction of irradiation induced reactive oxygen species” value (TiL-1 cells) was “did in dose-responsive manner”.
For cyclopiazonic acid [CPA], the “percent cell viability, mitigation activity” value (TiL1 cells; CPA added 1 hour after irradiation) was “mitigates”, the “percent cell viability, protection activity” value (TiL1 cells; CPA added 3 h before irradiation) was “protects” and the survival (mice; 6 mg/kg oral, 24 h and 1 h prior to irradiation at 8 Gy, 17% of controls survived) was 89%. For the same molecule, the “protection from radiation-induced death” value (mice; two oral administrations at 24 h and 1 h prior to irradiation at 8 Gy) was “protected mice from radiation-induced death”, the “Gm-CFU, protection of the immunohematopoietic system” value (bone marrow cells) was “protects the immunohematopoietic system” and the “reduction of irradiation induced reactive oxygen species” value (TiL-1 cells) was “did not reduce”.
